These results are taken from patent US20200181284A1, “EPIGENETIC INHIBITORS FOR SENSITIZING HEMATOLOGIC OR OTHER MALIGNANCIES TO GLUCOCORTICOID THERAPY” (UNIVERSITY OF SOUTHERN CALIFORNIA, priority 2017, published 2020).

Each structure is given as a SMILES string.

The test system of one experiment is GR-HP1γ interaction. Kind of experiment: Proximity ligation assay of GR and HP1γ in A549 cells. It counts as cell-based, human. The method, then: The experiments were performed following the manufacturer's instructions as previously described. Cells were grown on coverslips in 12-well plates, fixed in methanol for 2 min, and then washed twice in PBS. Firstly, the samples were saturated using the blocking solution, then different pairs of primary antibodies (HP1γ (Abcam ab10480) and GR (Santa Cruz sc-393232) in order to analyze HP1γ-GR, G9a (Sigma G6919) and HP1γ (Abcam ab56978) in order to analyze HP1γ-G9a interaction and HA-Tag (6E2) (Cell signaling #2367) and HP1γ (Abcam ab10480) in order to analyze HA- HP1γ interaction) were incubated with the fixed cells for 1 h at 37° C. […] Afterwards, the samples were mounted with Duolink II Mounting Medium containing Dapi in order to counterstain nuclei, and then analyzed on Zeiss Imager.Z1 fluorescence microscope. For each sample interactions were counted for 1000 cells using Image J software [46b].
The results as shown in FIGS. 18A-18E generally highlight that G9a and GLP methylation is required for HP1γ-G9a/GLP-GR ternary complex formation. […] The detected interactions are indicated by red dots. […] The number of interactions detected by Image J analysis is shown as the mean±SEM of three independent experiments. p-value was determined using a paired t-test. **p≤0.01. […] Whole-cell extracts were analyzed for G9a, GLP, GR, HP1γ and β-actin expression by immunoblot. […]

For a further experiment, the target named is T1, hGLP (Homo sapiens, UniProt Q9H9B1).
T1 construct: expressed in transfected cells; host or cells: Cos-7
T1 sequence (Q9H9B1 whole entry): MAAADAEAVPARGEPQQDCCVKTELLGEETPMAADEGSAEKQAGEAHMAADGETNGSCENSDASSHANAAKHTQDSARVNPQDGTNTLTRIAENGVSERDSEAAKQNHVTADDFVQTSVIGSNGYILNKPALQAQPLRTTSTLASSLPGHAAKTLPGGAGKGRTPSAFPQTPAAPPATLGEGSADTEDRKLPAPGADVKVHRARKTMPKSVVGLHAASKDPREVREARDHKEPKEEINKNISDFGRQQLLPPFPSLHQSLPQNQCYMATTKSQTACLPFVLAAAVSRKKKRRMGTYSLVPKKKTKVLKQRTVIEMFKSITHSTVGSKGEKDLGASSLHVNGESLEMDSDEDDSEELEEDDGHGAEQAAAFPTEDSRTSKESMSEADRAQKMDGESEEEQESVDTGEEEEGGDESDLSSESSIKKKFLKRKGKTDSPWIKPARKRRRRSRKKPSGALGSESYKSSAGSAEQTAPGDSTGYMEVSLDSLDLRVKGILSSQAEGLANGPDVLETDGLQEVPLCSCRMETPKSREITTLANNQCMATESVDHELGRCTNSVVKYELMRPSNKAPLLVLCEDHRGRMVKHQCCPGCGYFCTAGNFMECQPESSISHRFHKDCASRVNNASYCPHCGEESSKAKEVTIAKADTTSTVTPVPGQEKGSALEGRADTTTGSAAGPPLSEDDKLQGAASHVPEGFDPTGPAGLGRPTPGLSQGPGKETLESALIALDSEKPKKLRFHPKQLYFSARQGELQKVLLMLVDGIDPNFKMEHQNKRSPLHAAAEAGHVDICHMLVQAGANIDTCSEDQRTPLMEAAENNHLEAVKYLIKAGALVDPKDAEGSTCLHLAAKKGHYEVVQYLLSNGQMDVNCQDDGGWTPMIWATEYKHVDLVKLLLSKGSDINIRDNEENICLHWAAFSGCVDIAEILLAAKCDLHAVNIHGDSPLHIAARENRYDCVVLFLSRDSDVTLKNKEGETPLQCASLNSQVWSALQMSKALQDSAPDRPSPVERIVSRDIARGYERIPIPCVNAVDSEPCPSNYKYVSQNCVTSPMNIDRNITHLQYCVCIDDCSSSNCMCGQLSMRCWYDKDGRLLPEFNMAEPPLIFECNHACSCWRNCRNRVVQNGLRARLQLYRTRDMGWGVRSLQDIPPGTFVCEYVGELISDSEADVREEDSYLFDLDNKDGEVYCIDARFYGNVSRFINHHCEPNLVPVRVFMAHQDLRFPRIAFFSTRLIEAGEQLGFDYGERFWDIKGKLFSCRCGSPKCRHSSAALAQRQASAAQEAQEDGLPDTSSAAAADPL
As to the kind of experiment: Methylation of HA-hGLP in Cos-7 cells (pan met-K immunoprecipitation/immunoblot). It counts as cell-based, African green monkey. As to conditions: 2 μM, 24 h. The method, then: Cos-7 or A549 cells were seeded on 10-cm dishes the day before transfection. Cells were transiently transfected (where indicated) using Lipofectamine 2000 (Invitrogen) with 5 μg each of the indicated plasmids according to the manufacturer's protocol. […] Protein extracts were incubated with 1 μg of the indicated primary antibodies overnight at 4° C. with shaking. Protein A/G Plus Agarose (Santa Cruz sc-2003) beads were added and the mixture was incubated 2 hr at 4° C. The immunoprecipitates were separated on SDS-PAGE. […] In immunoprecipitation experiments 3% of the input of each sample was analyzed by immunoblot using the antibodies listed. […]

Consider `Clc1ccc(N/N=C(\c2ccccc2)c2ccccn2)nc1` [JIB-04, 5-chloro-N-[(E)-[phenyl(pyridin-2-yl)methylidene]amino]pyridin-2-amine], for which the “dex-induced interaction between GR and HP1γ in PLA” value in the experiment on GR-HP1γ interaction (A549 cells treated with dex and JIB-04) was “enhanced”. As for `COc1cc2c(NC3CCN(C4CCCCC4)CC3)nc(N3CCCN(C(C)C)CC3)nc2cc1OCCCN1CCCCC1` [UNC0646], the “GR-HP1γ interaction in PLA” value in the experiment on GR-HP1γ interaction (A549 cells, 2 μM UNC0646 24 h, 100 nM dex for the final 2 h) is recorded as “strongly decreased”. At hGLP, the “GLP methylation in cells” value is “reduced”.
